Measured values published in patent US20060100190A1, “Motexafin lutetium phototherapy with low fluences for treating vascular inflammation” (Pharmacyclics, Inc., priority 2004, published 2006).

Legend:
[1] = system: Fat-fed New Zealand rabbits; experiment: MLu phototherapy at low light fluence in fat-fed New Zealand rabbits; type: in vivo, rabbit; conditions: PT at 732 nm, low light fluence 30-100 J/cmf
Text: The methods, compositions, strategies and techniques described herein include processes to treat diffuse inflammation in blood vessels by administering a photo-activatable compound and low light fluence in the range of in the range of about 10 to about 400 Joules/cm of illuminated length in the general vicinity of the inflammation.

[2] = system: Watanabe Heritable Hyperlipidemic (WHHL) rabbits; experiment: MLu phototherapy (732 nm, low fluences) of aortic atheroma in cholesterol-fed WHHL rabbits; type: in vivo, rabbit
Text: FIG. 1 depicts treated segments of the rabbit aortic tree. In each rabbit, both T1 and T2 segments were about 30 mm in length with another 30 mm of buffer in between. Both T1 and T2 received the same fluence (J/cmf) at different fluence rates (mW/cmf) because T1 illumination period was shorter at 400 seconds compared to 900 seconds for T2.
Thirty 8 months old male Watanabe Heritable Hyperlipidemic (WHHL) rabbits were randomized after 3 weeks of 1% cholesterol feeding to either control or MLu groups (10 mg/kg, iv via ear vein). Intravascular illumination was performed 24 hours post-MLu using a fiber with a 30 mm active diffuser tip to deliver escalating fluences (30-175 J/cmf, 732 nm) for 400 s (upper) and 900 s (lower thoracic/abdominal aorta); control received no light. Rabbits were then switched to a normal diet immediately after phototherapy and sacrificed 3 weeks later. Aortas were harvested and examined for plaque (I/M ratios), Mac (RAM11), smooth muscle cell (myosin) and collagen (Picrosirius Red) changes.

[3] = system: atheroma; conditions: reported; cited from earlier work

CC(=O)[O-].CC(=O)[O-].CCc1c(CC)c2cc3nc(cnc4cc(OCCOCCOCCOC)c(OCCOCCOCCOC)cc4ncc4nc(cc1[n-]2)C(CCCO)=C4C)C(C)=C3CCCO.O.[Lu+3] [MLu, motexafin lutetium]
diffuse inflammation in blood vessels (based on decrease in macrophage burden) [1]: significant reduction in diffuse inflammation | macrophages in plaques ([2]; 30-175 J/cmf delivered over 400 s and 900 s): macrophage depletion | macrophage burden ([2]; all tested fluence groups (30-175 J/cmf) vs. control, p<0.05, both T1 and T2 treated segments): statistical significant reduction in macrophage burden | collagen (picrosirius red, bright-field and polarization microscopy) ([2]; treated 30 J/cmf, 400 s vs. control): denser packing of matured collagen | smooth muscle cell (SMC) content, histology of myosin-stained areas ([2]; treated 30 J/cmf, 400 s vs. control (non-phototherapy)): did not appear to decrease | SMC content (myosin positive areas), planimetry, % of the intima ([2]; treated sections, 30 J/cmf, 400 s, control 43.1±3.8%): 50.9±9.7% | effect on macrophages (Mac) following phototherapy (PT) [3]: destroys Mac by inducing apoptosis
